Data taken from patent publication US6858633B1, “Substituted 2-arylbenzazole compounds and their use as antitumour agents” (Cancer Research Technology Limited, priority 1999, dated 2005).
Structures can show the parent of a compound that is named as a salt. Where two headings read alike, the source gives them in different places.

How the values were obtained:
MCF-7 = assay: In vitro cytotoxicity, 3-day MTT assay, MCF-7; type: cell-based, human; details: for IC50: 3-day MTT assay
Experimental: (§1) In carrying out the following cytoloxicity assays, the method used corresponds substantially to the following example: • Cells were maintained in a continuous logarithmic culture in RMPI 1640 with L-glutamine medium, supplemented with 10% fetal calf serum, penicillin (100 IU/ml) and streptomycin (100 μg/ml). The cells were mildly trypsinized for passage and for use in assays. • On day one, 180 μl of trypsinized tumour cells (5×10^3 ml^−1) were placed in the wells of 96-well, flat-bottom microtiter plates. Columns 1 and 12 were filled with 300 μl medium to protect from evaporation. The plates were incubated for 24 hours at 37° C. and 5% CO2 in air to allow the cells to adhere and resume exponential growth prior to the addition of drugs. The compounds being tested were dissolved in DMSO and stored as 10 mM stock solutions at 4° C., protected from light. […] 20 μl of drug dilution was added to the other wells with the lowest concentration in column 3 and the highest concentration in column 11. The plates were incubated for 72 hours at 37° C. and 5% CO2 in air. Each compound was tested in triplicate. At the time of drug addition, a plate of untreated cells was read to provide an initial optical density value for use in the calculation of the IC50. • On day five the plates were read. 50 μl MTT (1 mg/ml^−1) was added per well and the plates incubated for a further 4 hours. The MTT is metaboliscd to form a blue formazan product. The MTT solution was aspirattd and 125 μl DMSO:glycine buffer (4:1) was added. The plates were placed on a plate shaker until the fornazan crystals had dissolved and absorbance was ready at 550 nm on a plate reader. • For each compound tested, a dose response curve was obtained and the IC50 statue (drug concentration at 50% inhibition of cell growth) was calculated.
(§2) (n=8) for a range of compounds in relation to MCF-7 and MDA 468 cell lines.

MDA468 = assay: In vitro cytotoxicity, 3-day MTT assay, MDA468; type: cell-based
Experimental: as §1, §2

[1] = Stability in plasma in vitro; type: in vitro ADME, rat; details: hydrochloride salts; rat and other mammalian plasma
[2] = rats, i.v., typical dose 25 mg/kg
[3] = system: ER positive MCF-7 human breast tumor xenografts; details: for in vivo growth retardation of MCF-7 xenografts: prodrugs
[4] = system: ER negative MT-1 human breast tumor xenografts; details: for in vivo growth retardation of MT-1 xenografts: prodrugs
COLO205 xenografts = assay: In vivo COLO205 xenograft study (FIG. 2)
[5] = Blood parameters and liver transaminases in xenograft studies; parameters: species or system nude mice; details: mouse, in vivo
sensitive cell lines = assay: Biphasic dose-response relationship (second growth phase) in sensitive cell lines; type: cell-based
Text: One feature of the prior art compounds is that they show a biphasic dose-response relationship specifically in sensitive cell lines: cell kill occurs at low nanomolar concentrations of the compounds, followed by a potentially undesirable proliferative response at low micromolar concentrations (termed the “second growth phase”).

[6] = surviving mice treated with prodrug
[7] = 72 h, asterisked values, IC50 concentration in μM

Compound	IC50 (MCF-7; Homo sapiens, MCF7, 72 h, n=8) [µM]	IC50 (MDA468; 72 h, n=8) [µM]	IC50 (MCF-7; n=8) [µM]	IC50 (MDA468; n=8) [µM]	other results
Nc1ccc(-c2nc3c(F)cccc3s2)cc1I [Im, 4-Fluoro-2-(4′-amino-3′-iodophenyl)benzothiazole]	0.00788	0.00911			
Cc1cc(-c2nc3ccccc3s2)ccc1NC(=O)C(N)CCCCN.Cl.Cl (centres unmarked) [Iz, 2-(4′-Amino-3′-methylphenyl)benzothiazole Lysyl Amide Dihydrochioride Salt]			0.08	0.07	stability in plasma in vitro [1]: stable; removal from plasma and reconversion to parent compound in vivo [2]: readily removed from such plasma and reconverted to their parent compound in vivo; body weight loss ([3]; prodrug, dose dependence): Dose-dependent body weight loss; in vivo growth retardation of MCF-7 xenografts [3]: significant in vivo growth retardation; in vivo growth retardation of MT-1 xenografts [4]: significant in vivo growth retardation; tumor growth inhibition in MT-1 xenografts [4, 6]: moderate tumor growth inhibition
Cc1cc(-c2nc3cc(F)c(F)cc3s2)ccc1NC(=O)C(N)CCCCN (centres unmarked) [Ias, 5,6-Difluoro-2-(4′-amino-3′-methylphenyl)benzothiazole Lysyl Amide Dihydrochloride]			0.0307	0.302	
Cc1cc(-c2nc3cc(F)ccc3s2)ccc1NC(=O)C(C)N.Cl (centres unmarked) [Iaf, 5-Fluoro-2-(4′-amino-3′-metbylphenyl)benzothiazole Alanyl Amide Hydrochloride Salt]			0.00589	0.0377	IC50 in MCF-7 cells, fold lower than that of other amido prodrugs (MCF-7; compared with other prodrugs): > 5 fold
Nc1ccc(-c2nc3ccc(F)cc3s2)cc1I [Io, 6-Fluoro-2-(4′-amino-3′-iodophenyl)benzothiazole]	< 0.0001	< 0.0001			
Nc1ccc(-c2nc3cc(F)ccc3s2)cc1CO [Iaq, 5-Fluoro-2-(4′-amino-3′-(hydroxymethyl)phenyl)benzothiazole]	< 0.0001	0.00043			melting point: 242 to 245 °C
Nc1ccc(-c2nc3cc(F)ccc3s2)cc1 [Il, 5-Fluoro-2-(4′-aminophenyl)benzothiazole]	< 0.0001	< 0.0001			
Cc1cc(-c2nc3cccc(I)c3s2)ccc1N [Ial, 7-Iodo-2-(4′-amino-3′-methylphenyl)benzothiazole]	0.0283	0.323			
Nc1ccc(-c2nc3c(F)cccc3s2)cc1 [Ic, 4-Fluoro2-(4-aminophenyl)benzothiazole]	0.00854	0.0294			
Nc1ccc(-c2nc3ccc(F)cc3s2)cc1Br [Iu, 6-Fluoro2-(4′-amino-3′-bromophenyl)benzothiazole]	0.0455	0.0687			
Nc1ccc(-c2nc3cc(F)ccc3s2)cc1I [In, 5-Fluoro-2-(4′-amino-3′-iodophenyl)benzothiazole]	< 0.0001	< 0.0001			
Nc1ccc(-c2nc3ccc(F)cc3s2)cc1Cl [Ir, 6-Fluoro-2-(4′-amino3′chlorophenYl)bcnzothiazole]			0.00408	0.0117	
Cc1cc(-c2nc3c(F)cccc3s2)ccc1N [Compound Ia]			< 0.0001	0.00013	
Cc1cc(-c2nc3ccc(F)cc3s2)ccc1NC(=O)C(N)CCCCN (centres unmarked) [Iae, 6-Fluoro-2-(4′-amino-3′-methylphenyl)benzothiazole Lysyl Amide Dihydrochloride Salt]			0.147	0.328	
N#Cc1cc(-c2nc3cc(F)ccc3s2)ccc1N [Ian, 5-Fluoro-2-(4′-amino-3′-cyanophenyl)benzothiazole]	< 0.0001	< 0.0001			melting point: 268 to 270 °C
Cc1cc(-c2nc3cc(F)cc(F)c3s2)ccc1N [Ig, 5,7-Difluoro-2-(4′-amino3′-methylphenyl)benzothiazole]	0.0009	0.0044			

Compound	IC50 (MCF-7; Homo sapiens, MCF7, 72 h, n=8) [µM]	IC50 (MDA468; 72 h, n=8) [µM]	IC50 (MCF-7; n=8) [µM]	IC50 (MDA468; n=8) [µM]	other results
Cc1cc(-c2nc3cc(I)ccc3s2)ccc1N [Compound Iak, 5-Iodo-2-(4′-amino-3′-methylphenyl)benzothiazole]	0.493				melting point: 200 to 202 °C; IC50 (MDA468; [7]): 80.9 µM
Cc1cc(-c2nc3c(F)cc(F)cc3s2)ccc1N [If]			< 0.0001	0.00535	
Cc1cc(-c2nc3ccc(F)cc3s2)ccc1N [Ib, 6-Fluoro-2-(4′-amino-3′-methylphenyl)benzothiazole]	< 0.0001	0.00011			tumour growth inhibition, COLO205 xenografts (FIG. 2) (COLO205 xenografts): tumour growth inhibition observed; growth inhibition of MCF-7 xenografts ([3]; given i.p.): Significant growth inhibition; growth inhibition of MT-1 xenografts compared with same dose of (Ik) ([4]; 12.5 mg/kg): more pronounced growth inhibition; tumor growth inhibition in MT-1 xenografts ([4]; dose dependence): dose-dependent tumor growth inhibition; weight loss in MT-1 xenograft study ([4]; dose dependence): weight loss; blood parameters (white blood cell and platelet counts) and level of liver transaminases [5]: not adversely affected; biphasic dose-response (second growth phase) (sensitive cell lines): the biphasic response is eliminated
Nc1ccc(-c2nc3c(F)cccc3s2)cc1Br [Is, 4-Fluoro-2-(4′amino-3′-bromophenyl)benzothiazole]	0.0382	0.024			
CC(=O)Nc1ccc(-c2nc3cc(F)ccc3s2)cc1C [Iam, 5-Fluoro-2-(4′-acetamido-3′-methylphenyl)benzothiazole]					IC50 (MCF-7; Homo sapiens, MCF7, 72 h, asterisked values, IC50 concentration in μM): 7.64 µM; melting point: 219 to 221 °C; IC50 (MDA468; [7]): 5.84 µM
Nc1ccc(-c2nc3cc(F)ccc3s2)cc1Br [It, 5-Fluoro-2-(4′-amino-3′-bromophenyl)benzothiazole]	< 0.0001	0.0002			
7-Fluoro-2-(4′-imino-3′-methylphenyl)benzothiazole [Ih]			0.00239	0.0103	
Cc1cc(-c2nc3cc(F)c(F)cc3s2)ccc1N [Ii, 5,6-Difluoro-2-(4′-amino-3′-methylphenyl)benzothiazole]	< 0.0001	0.00355			
Cc1cc(-c2nc3ccc(F)cc3s2)ccc1NC(=O)C(C)N (centres unmarked) [Iac, 6-Fluoro-2-(4′-amino-3′-Methylphenyl)benzothiazole Alanyl Amide Hydrochloride Salt]			0.044	0.297	
Cc1cc(-c2nc3c(F)c(F)ccc3s2)ccc1N [Ie, 4,5-Difluoro-2-(4′-amino-3′-methylphenyl)benzothiazole]	0.00064	0.00067			
Nc1ccc(-c2nc3c(F)cccc3s2)cc1Cl [Ip, 4-Fluoro-2-(4′-amino-3′-chlorophenyl)benzothiazole]	0.00095	0.00193			
Nc1ccc(-c2nc3ccc(F)cc3s2)cc1 [Id, 6-Fluoro2-(4′-aminophenyl)benzothiazole]	< 0.0001	0.0481			
Cc1cc(-c2nc3ccccc3s2)ccc1NC(=O)C(C)N.Cl (centres unmarked) [Iw, 2-(4′-Amino-3′-methylphenyl)benzothiazole Alanyl Amide Hydrochloride Salt]			0.36	0.34	stability in plasma in vitro [1]: stable; removal from plasma and reconversion to parent compound in vivo [2]: readily removed from such plasma and reconverted to their parent compound in vivo; growth retardation of MCF-7 xenografts compared with (Iz) ([3]; 12.5 mg/kg given i.v.): greater extent of growth retardation; in vivo growth retardation of MCF-7 xenografts [3]: significant in vivo growth retardation; in vivo growth retardation of MT-1 xenografts [4]: significant in vivo growth retardation; tumor growth inhibition in MT-1 xenografts [4, 6]: moderate tumor growth inhibition
Cc1cc(-c2nc3cc(F)c(F)cc3s2)ccc1NC(=O)C(C)N (centres unmarked) [Iar, 5,6-Difluoro-2-(4′-amino-3′-methylphenyl)benzothiazole Alany Amide Hydrochloride Salt]			0.0331	0.217	
Nc1ccc(-c2nc3cc(F)ccc3s2)cc1Cl [Iq, 5-Fluoro-2-(4′-amino-3′-chlorophenyl)benzothiazole]	0.00709	0.0189			
CC(N)C(=O)Nc1ccc(-c2nc3ccccc3s2)cc1.Cl (centres unmarked) [Iv, 2-(4′-Aminophenyl)benzothiazole Alanyl Amide Hydrochloride Salt]			0.06	0.04	tumour growth inhibition, COLO205 xenografts (FIG. 2) (COLO205 xenografts): tumour growth inhibition observed
